Measurements: patent US20260365653A1, “IRREVERSIBLE MUTEGFR INHIBITORS” (Bayer Aktiengesellschaft, priority 2022, published 2026)

Columns and labels:
[1] = system: BA/F3 (insSVD) cells; assay: Ba/F3-EGFR-insSVD cell survival assay (Cell Titer-Glo); assay type: cell-based
Experimental: Cellular Data Description (WT, insSVD, insSVD T790M) 293T cells from ATCC were transfected with pBABEpuro expression constructs for WT EGFR or EGFR-insSVD, or EGFR-insSVD T790M, and pCL-Eco packaging vector using Fugene-6 transfection reagent from Promega. Plates were incubated at 37° C. for 48 h. Retrovirus was harvested by filtering the media supernatant through a 0.45 μm filter.
Ba/F3 cells purchased from DSMZ were grown in RPMI+10% FBS+10 ng/ml IL-3 and infected with filtered retroviral supernatant at a 1:2 dilution. Polybrene was added to a concentration of 8 μg/mL, plates were spun for 90 min, and incubated for 16 h at 37° C. 2 μg/mL puromycin was added to the infected cells 24 h after infection and cells were continually grown in the presence of puromycin and 10 ng/ml IL-3. Following stably expressing Ba/F3 cell lines were generated: Ba/F3-EGFR-WT, Ba/F3-EGFR-insSVD, Ba/F3-EGFR-insSVD T790M, (Ba/F3-vector-control).
For cell survival assays, Ba/F3 cells were grown to a density of 1-2 million cells per mL, spun down and resuspended in media without IL-3, and replated at a concentration of 200,000-500,000 cells per mL. The cells ectopically expressing WT EGFR, EGFR-insSVD, or EGFR-insSVD T790M were plated with 10 ng/ml Millipore Culture grade EGF. The cells ectopically expressing pBABEpuro empty vector were plated with 10 ng/mL IL-3.
2 days later, cells were plated in 50 µL in a 384 well plate at a concentration of 4000 cells per well for cells assayed in the absence of IL-3 and 2000 cells per well for cells assayed in the presence of IL-3. 100 nL of compound was added to each well using a 100 nL pin head, and plates were incubated at 37° C. for 48 h.
Cell viability was measured by adding 20 μL of Cell Titer-Glo Luminescent Cell Viability Reagent diluted 1:3 in PBS. Plates were sealed with Perkin Elmer Top-Seal, inverted several times to mix, and immediately centrifuged at 1000 rpm for 2 min. Plates were incubated in low light conditions for 8-10 min and luminescence was measured.

[2] = molecular target: T1, mutEGFR (D770_N771insNPG, T790) (Homo sapiens, UniProt P00533, INS770NPG/T790M); assay: mutEGFR (D770_N771insNPG, T790) kinase assay; assay type: biochemical
T1 construct: exact insNPG construct not described; in-house EGFR proteins were N-terminal GST fusions from baculovirus/insect cells (borders R669-A1210 given only for WT, insSVD, insASV)
T1 sequence (P00533 with tags, fused parts or gaps INS770NPG/T790M limits assumed): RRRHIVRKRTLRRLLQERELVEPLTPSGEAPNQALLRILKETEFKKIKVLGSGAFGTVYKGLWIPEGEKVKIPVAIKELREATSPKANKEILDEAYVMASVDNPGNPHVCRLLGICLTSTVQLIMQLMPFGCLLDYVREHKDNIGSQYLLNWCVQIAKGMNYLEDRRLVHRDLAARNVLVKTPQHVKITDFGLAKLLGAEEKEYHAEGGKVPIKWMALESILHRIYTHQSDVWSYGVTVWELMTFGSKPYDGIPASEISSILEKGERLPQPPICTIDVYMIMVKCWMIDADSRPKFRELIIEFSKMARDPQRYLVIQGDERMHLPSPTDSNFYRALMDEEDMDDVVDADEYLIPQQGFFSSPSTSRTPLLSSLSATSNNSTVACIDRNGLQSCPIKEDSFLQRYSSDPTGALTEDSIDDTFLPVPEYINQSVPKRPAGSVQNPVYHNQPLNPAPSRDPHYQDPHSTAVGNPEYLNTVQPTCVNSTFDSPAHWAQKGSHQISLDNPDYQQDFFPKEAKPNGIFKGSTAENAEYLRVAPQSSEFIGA
Description: The different EGFR proteins used in the biochemical kinase activity inhibition assays were generated inhouse by expression in insect cells using Baculo Virus system and subsequent purification as described in the following paragraphs.
The cDNAs encoding the various protein sequences from human EGFR human (P00533) were optimized for expression in eukaryotic cells and synthesized by the GeneArt Technology at Life Technologies.

[3] = molecular target: T2, mutEGFR (D770_N771insSVD) (Homo sapiens, UniProt P00533, DUP768-770); assay: Exon20-Mutant-EGFR (D770_N771insSVD) kinase assay (TR-FRET); assay type: biochemical
T2 construct: GST-EGFR #3 (SVD between D770 and N771); made in house; host or cells: Sf9 insect cells (baculovirus)
T2 sequence (P00533 with tags, fused parts or gaps DUP768-770): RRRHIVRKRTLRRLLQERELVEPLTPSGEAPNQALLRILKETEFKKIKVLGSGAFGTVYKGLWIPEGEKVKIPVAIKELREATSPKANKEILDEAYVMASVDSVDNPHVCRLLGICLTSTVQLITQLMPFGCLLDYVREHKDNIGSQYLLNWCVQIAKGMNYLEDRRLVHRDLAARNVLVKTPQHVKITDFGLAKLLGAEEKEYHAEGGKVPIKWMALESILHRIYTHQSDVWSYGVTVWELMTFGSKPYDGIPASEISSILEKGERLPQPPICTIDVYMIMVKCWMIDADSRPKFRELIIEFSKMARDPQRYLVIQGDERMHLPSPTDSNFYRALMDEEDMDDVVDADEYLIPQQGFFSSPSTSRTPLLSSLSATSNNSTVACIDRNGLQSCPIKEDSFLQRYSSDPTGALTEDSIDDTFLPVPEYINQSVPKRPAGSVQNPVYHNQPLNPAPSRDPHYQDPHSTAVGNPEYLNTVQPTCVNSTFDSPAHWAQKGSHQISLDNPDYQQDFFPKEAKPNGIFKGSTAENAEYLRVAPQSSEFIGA

[4] = Mus musculus, BaF3, 48 h, Table 3a, cell survival, Cell Titer-Glo, with 10 ng/ml EGF, without IL-3
[5] = mutEGFR (D770_N771insSVD) kinase assay IC50, Table 2a, D770_N771insSVD, 2 mM ATP
[6] = Table 3a, cell survival, Cell Titer-Glo, with 10 ng/ml EGF, without IL-3, 48 h
[7] = mutEGFR (D770_N771insSVD) kinase assay IC50, Table 2b (from US Priority Patent Application), mutEGFR D770_N771insSVD

Row | IC50 ([2]; Table 2a, D770_N771insNPG) [nM] | IC50 [3, 5] [nM] | IC50 [3, 7] [nM] | IC50 ([2]; Table 2b (from US Priority Patent Application), mutEGFR D770_N771insNPG) [nM] | Compound | IC50 [1, 4] [nM] | IC50 [1, 6] [nM] | IC50 ([1]; Mus musculus, BaF3, 48 h, Table 3b, Ba/F3 EGFR-insSVD) [nM]
1 | 4.9 | 8.55 | – | – | C=CC(=O)N1CCn2nc(-c3ccc(Cl)c(C#N)c3)c(-c3ccncc3)c2C1 [Example 118, 2-chloro-5-[5-(prop-2-enoyl)-3-(pyridin-4-yl)-4,5,6,7-tetrahydropyrazolo[1,5-a]pyrazin-2-yl]benzonitrile] | 183 | – | –
2 | 0.366 | 0.17 | – | – | C=CC(=O)N1Cc2c(-c3ccncc3)c(-c3ccc(Cl)cc3)nn2C(C)C1 (racemic) [Example 281, 1-[(7RS)-2-(4-chlorophenyl)-7-methyl-3-(pyridin-4-yl)-6,7-dihydropyrazolo[1,5-a]pyrazin-5(4H)-yl]prop-2-en-1-one] | 9.77 | – | –
3 | 256 | 165 | – | – | Cc1c[nH]c2nccc(-c3c(-c4ccc(Cl)cc4F)nn4c3CN(C(=O)/C=C/CN(C)C)CC4)c12 [Example 57, (2E)-1-[2-(4-chloro-2-fluorophenyl)-3-(3-methyl-1H-pyrrolo[2,3-b]pyridin-4-yl)-6,7-dihydropyrazolo[1,5-a]pyrazin-5(4H)-yl]-4-(dimethylamino)but-2-en-1-one] | 85.7 | – | –
4 | 95.7 | 71 | – | – | CC1c2c(-c3ccncc3)c(-c3ccc(Cl)cc3F)nn2CCN1C(=O)/C=C/CN(C)C (single isomer, unassigned; isomer 2) [Example 286, (2E)-1-[2-(4-chloro-2-fluorophenyl)-4-methyl-3-(pyridin-4-yl)-6,7-dihydropyrazolo[1,5-a]pyrazin-5(4H)-yl]-4-(dimethylamino)but-2-en-1-one (isomer 2)] | – | 843 | –
5 | 804 | 208 | 208 | – | C/C=C/C(=O)N1CCn2nc(-c3ccc(F)cc3)c(-c3ccncc3)c2C1 [Example 23, (2E)-1-[2-(4-fluorophenyl)-3-(pyridin-4-yl)-6,7-dihydropyrazolo[1,5-a]pyrazin-5(4H)-yl]but-2-en-1-one] | 3850 | – | –
6 | 53.8 | 344 | – | – | Cc1c[nH]c2nccc(-c3c(-c4cccc(C#N)c4)nn4c3CN(C(=O)/C=C/CN(C)C)[C@@H](C)C4)c12 [Example 288, 3-[(6S)-5-[(2E)-4-(dimethylamino)but-2-enoyl]-6-methyl-3-(3-methyl-1H-pyrrolo[2,3-b]pyridin-4-yl)-4,5,6,7-tetrahydropyrazolo[1,5-a]pyrazin-2-yl]benzonitrile] | 181 | – | –
7 | 8.01 | 1.79 | – | – | C=CC(=O)N1CCn2nc(-c3ccc(C(F)F)cc3)c(-c3ccncc3)c2C1 [Example 131, 1-{2-[4-(difluoromethyl)phenyl]-3-(pyridin-4-yl)-6,7-dihydropyrazolo[1,5-a]pyrazin-5(4H)-yl}prop-2-en-1-one] | 61.3 | – | –
8 | 0.694 | 0.226 | – | – | C=CC(=O)N1Cc2c(-c3ccncc3)c(-c3ccc(Cl)cc3)nn2C(C)(C)C1 [Example 209, 1-[2-(4-chlorophenyl)-7,7-dimethyl-3-(pyridin-4-yl)-6,7-dihydropyrazolo[1,5-a]pyrazin-5(4H)-yl]prop-2-en-1-one] | 8.15 | – | –
9 | 2.43 | 0.631 | – | – | O=C(/C=C/CN1CCOCC1)N1CCn2nc(-c3ccc(Cl)cc3)c(-c3ccncc3)c2C1 [Example 165, (E)-1-(2-(4-chlorophenyl)-3-(pyridin-4-yl)-6,7-dihydropyrazolo[1,5-a]pyrazin-5(4H)-yl)-4-morpholinobut-2-en-1-one] | 107 | – | –
10 | 1.31 | 0.957 | – | – | C=CC(=O)N1CCn2nc(-c3cc(Cl)ccc3F)c(-c3ccncc3)c2C1 [Example 132, 1-[2-(5-chloro-2-fluorophenyl)-3-(pyridin-4-yl)-6,7-dihydropyrazolo[1,5-a]pyrazin-5(4H)-yl]prop-2-en-1-one] | 44.2 | – | –
11 | 104 | 64.5 | 64.5 | 104 | O=C(Nc1cc(-c2c(-c3ccc(F)cc3)nn3c2CN(C(=O)C2CO2)CC3)ccn1)C1CC1 (stereo not drawn) [Example 9, N-{4-[2-(4-fluorophenyl)-5-(oxirane-2-carbonyl)-4,5,6,7-tetrahydropyrazolo[1,5-a]pyrazin-3-yl]pyridin-2-yl}cyclopropanecarboxamide] | 2040 | – | 2040
12 | 3.3 | 1.26 | – | – | CN(C)C/C=C/C(=O)N1CCn2nc(-c3ccc(Cl)cc3F)c(-c3ccncc3)c2C1 [Example 26, (2E)-1-[2-(4-chloro-2-fluorophenyl)-3-(pyridin-4-yl)-6,7-dihydropyrazolo[1,5-a]pyrazin-5(4H)-yl]-4-(dimethylamino)but-2-en-1-one] | 70.3 | – | –
13 | 12.1 | 3.2 | – | – | CN(C)C/C=C/C(=O)N1CCn2nc(-c3ccc(C(F)(F)F)c(F)c3)c(-c3ccncc3)c2C1 [Example 151, (2E)-4-(dimethylamino)-1-{2-[3-fluoro-4-(trifluoromethyl)phenyl]-3-(pyridin-4-yl)-6,7-dihydropyrazolo[1,5-a]pyrazin-5(4H)-yl}but-2-en-1-one] | 405 | – | –
14 | 1.8 | 0.471 | – | – | C=CC(=O)N1CCn2nc(-c3ccc(C(F)(F)F)cc3F)c(-c3ccncc3)c2C1 [Example 135, 1-{2-[2-fluoro-4-(trifluoromethyl)phenyl]-3-(pyridin-4-yl)-6,7-dihydropyrazolo[1,5-a]pyrazin-5(4H)-yl}prop-2-en-1-one] | 27.7 | – | –
15 | 0.592 | 0.18 | – | – | CC1Cn2nc(-c3ccc(Cl)cc3F)c(-c3ccncc3)c2CN1C(=O)/C=C/CN(C)C (racemic) [Example 235, (2E)-1-[(RS)-2-(4-chloro-2-fluorophenyl)-6-methyl-3-(pyridin-4-yl)-6,7-dihydropyrazolo[1,5-a]pyrazin-5(4H)-yl]-4-(dimethylamino)but-2-en-1-one] | 24.1 | – | –
16 | 1.05 | 0.764 | – | – | CN(C)C/C=C/C(=O)N1CCn2nc(-c3cccc(Cl)c3)c(-c3ccncc3)c2C1 [Example 150, (2E)-1-[2-(3-chlorophenyl)-3-(pyridin-4-yl)-6,7-dihydropyrazolo[1,5-a]pyrazin-5(4H)-yl]-4-(dimethylamino)but-2-en-1-one] | 54.3 | – | –
17 | 10.1 | 5.61 | – | – | C=CC(=O)N1Cc2c(-c3ccncc3)c(-c3ccc(Cl)c(C)c3)nn2CC1(C)C [Example 212, 1-[2-(4-chloro-3-methylphenyl)-6,6-dimethyl-3-(pyridin-4-yl)-6,7-dihydropyrazolo[1,5-a]pyrazin-5(4H)-yl]prop-2-en-1-one] | 296 | – | –
18 | 216 | 435 | – | – | C=CC(=O)N1CCn2nc(-c3ccc(F)cc3)c(-c3ccnc4[nH]cc(C)c34)c2C1C (single isomer, unassigned; isomer 2) [Example 250, 1-(2-(4-fluorophenyl)-4-methyl-3-(3-methyl-1H-pyrrolo[2,3-b]pyridin-4-yl)-6,7-dihydropyrazolo[1,5-a]pyrazin-5(4H)-yl) prop-2-en-1-one (isomer 2)] | – | 75.1 | –
19 | 1.93 | 0.75 | – | – | C=CC(=O)N1CCn2nc(-c3ccc(C)cc3F)c(-c3ccncc3)c2C1 [Example 110, 1-[2-(2-fluoro-4-methylphenyl)-3-(pyridin-4-yl)-6,7-dihydropyrazolo[1,5-a]pyrazin-5(4H)-yl]prop-2-en-1-one] | 33.2 | – | –
20 | – | 19.4 | – | – | CNC/C=C/C(=O)N1CCn2nc(-c3ccc(F)cc3)c(-c3ccncc3)c2C1 [Example 80, (2E)-1-[2-(4-fluorophenyl)-3-(pyridin-4-yl)-6,7-dihydropyrazolo[1,5-a]pyrazin-5(4H)-yl]-4-(methylamino)but-2-en-1-one] | 1370 | – | –
